From patent US4927659A, “Tris-hydroxymethyl lower alkane esters as fat mimetics” (Nabisco Brands, Inc., priority 1989, dated 1990)

Key:
[1] = in vivo animal feeding study for caloric availability (body weight gain); design: species or system male Sprague-Dawley rats; conditions: rats, diet of 50% fort and 21% test compound, 14 days
Excerpt: This example illustrates how the novel fat mimetics of this invention are screened for caloric availability by a carefully controlled in vivo animal feeding study.
An experimental relationship between total calories ingested and animal body weight gain is established by monitoring the body weight gain associated with consumption of a nutritionally balanced diet containing varying concentrations of a reference substance such as corn oil which has a known caloric availability. Correlations between total calories ingested and body weight gain are excellent (r=0.99).
Caloric availability of an unknown substance is evaluated by substituting a specific weight of the unknown substance for the reference substance and observing the body weight gain. The gain in body weight is equated to a total number of calories using the correlation previously established for the reference data. The estimated number of calories ingested are divided by the weight of unknown substance to give the apparent calories per gram for the unknown substance. Generally speaking, in these bioavailability studies, the degree of perianal pelt soiling correlates with reduced bioavailability.
The test animals are six-week-old male Sprague-Dawley rats obtained from the Portage, Mich. facility of the Charles River Laboratories, Inc. After acclimation for 15 days, the test duration is 14 days. […]

[2] = test system: porcine pancreatic lipase; assay: in vitro digestibility: hydrolysis by pancreatic lipase (TLC densitometry); format: in vitro ADME; conditions: in 10 minutes, triglyceride control, 37° C., pH 7.1
Procedure: This example outlines the procedure for estimating the in vitro digestibility of the synthetic fat mimetics of this invention.
1. Buffer: A pH 7.1 phosphate buffer is prepared by dissolving 6.8 g. KH2 PO4 in 1 L. of millipore filtered water (to yield 0.05 M phosphate). Fifty mg. Ca(NO3)2 and 5.0 g. cholic acid (Na salt, an ox bile isolate from Sigma) are added to give 300 microM Ca^++ and 0.5 % cholic acid in 0.05 M phosphate. The pH is adjusted to approximately 7.1 with solid NaOH. Several drops of Baker "Resi-analyzed" toluene are added to prevent bacterial growth during storage at 3-5° C.
2. Lipase: About 15 mg./mL commercial porcine pancreatic lipase from U.S. Biochemical Corporation is dissolved in buffer.
3. Substrates and Standards: A 1.0 mL volumetric flask is charged with an amount of lipid substrate (test substance or standard) calculated to give a concentration of 200 nanomoles per microliter in Baker "Resi-analyzed" toluene. (The proper concentration may be approximated by […] the molecular weight of the lipid in question, dividing by 10, and diluting to the mark; this yields about 200 nanomoles per microliter.) This preparation affords the substrate to be used in the hydrolysis reactions. […]

SMILES | caloric availability (kcal/gram upon being metabolized) [1] | hydrolysis by pancreatic lipase [2]
CCCCCCCC/C=C\CCCCCCCC(=O)OCC(C)(COC(=O)CCCCCCC/C=C\CCCCCCCC)COC(=O)CCCCCCC/C=C\CCCCCCCC [Example 1, 1,1,1-Tris-hydroxymethylethane trioleate] | about 3.3 kcal/gram | 
CCCCCCCC/C=C\CCCCCCCC(=O)OCC(COC(=O)CCCCCCC/C=C\CCCCCCCC)OC(=O)CCCCCCC/C=C\CCCCCCCC [triolein] |  | substantially hydrolyzed
